The record followed here is PubChem BioAssay AID1918949 (Molecular Pharmacology Branch, DTP, NCI, 2023).

Where “and” joins values, the source holds several entries; their conditions need not be identical. Equal entries are not always repeated. Where only a bound is given, the exact number is not on record here.

The subject of this assay is K24384-001-R-PDC complex spheroid viability. Nature of the assay: Anticancer human tumor K24384-001-R-PDC patient-derived pancreatic adenocarcinoma cell line growth inhibition. The conditions noted are these: for viability, T/C: stronger effect = lower value. In short, it runs like this:
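Multicellular complex spheroids of tumor cells with human endothelial cells (HUVEC) and mesenchymal stem cells; the LSD1 inhibitor iadademstat was combined with standard-of-care or investigational agents. Top concentration at or near clinical Cmax, half-log dilutions; final DMSO ≤0.25%.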

Where [1] appears, read: curve of first compound, second compound 0.1 µM.
The mark [2] stands for this setting: curve of first compound, second compound 0.316 µM.
Setting [3] is: curve of first compound, second compound 1 µM.
Where [4] appears, read: curve of first compound, second compound 3.16 µM.
[5] abbreviates: curve of first compound, second compound 10 µM.
The mark [6] stands for this setting: second compound 0.1 µM, first compound 0.00949 µM.
The mark [7] stands for this setting: second compound 0.1 µM, first compound 0.03 µM.
Where [8] appears, read: second compound 0.1 µM, first compound 0.0949 µM.
[9] abbreviates: second compound 0.1 µM, first compound 0.3 µM.
The mark [10] stands for this setting: second compound 0.1 µM, first compound 0.949 µM.
The mark [11] stands for this setting: second compound 0.1 µM, first compound 3 µM.
Where [12] appears, read: second compound 0.316 µM, first compound 0.00949 µM.
[13] abbreviates: second compound 0.316 µM, first compound 0.03 µM.
[14] abbreviates: second compound 0.316 µM, first compound 0.0949 µM.
Where [15] appears, read: second compound 0.316 µM, first compound 0.3 µM.
Setting [16] is: second compound 0.316 µM, first compound 0.949 µM.
The mark [17] stands for this setting: second compound 0.316 µM, first compound 3 µM.
Where [18] appears, read: second compound 1 µM, first compound 0.00949 µM.
Setting [19] is: second compound 1 µM, first compound 0.03 µM.
[20] abbreviates: second compound 1 µM, first compound 0.0949 µM.
The mark [21] stands for this setting: second compound 1 µM, first compound 0.3 µM.
[22] abbreviates: second compound 1 µM, first compound 0.949 µM.
The mark [23] stands for this setting: second compound 1 µM, first compound 3 µM.
Setting [24] is: second compound 3.16 µM, first compound 0.00949 µM.
Setting [25] is: second compound 3.16 µM, first compound 0.03 µM.
Where [26] appears, read: second compound 3.16 µM, first compound 0.0949 µM.
Setting [27] is: second compound 3.16 µM, first compound 0.3 µM.
The mark [28] stands for this setting: second compound 3.16 µM, first compound 0.949 µM.
Setting [29] is: second compound 3.16 µM, first compound 3 µM.
Where [30] appears, read: second compound 10 µM, first compound 0.00949 µM.
The mark [31] stands for this setting: second compound 10 µM, first compound 0.03 µM.
Where [32] appears, read: second compound 10 µM, first compound 0.0949 µM.
The mark [33] stands for this setting: second compound 10 µM, first compound 0.3 µM.
The mark [34] stands for this setting: second compound 10 µM, first compound 0.949 µM.
Where [35] appears, read: second compound 10 µM, first compound 3 µM.
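Also: spheroids exposed to agents for seven days before luminescence viability reading.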
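For viability, T/C in this document: 100% = DMSO vehicle control viability.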

Take `Nc1ccccc1NC(=O)c1ccc(CNC(=O)OCc2cccnc2)cc1` + NC1CC1c1ccc(-c2cccc(O)c2)cc1: the IC50 (as a rule, the midpoint of a concentration-inhibition curve) stood at 430 nM under setting [1]; 389 nM under setting [2]; 358 nM under setting [3]; 328 nM under setting [4]; 312 nM under setting [5]. Besides, the viability, T/C (commonly the result in the treated group divided by that in the control group, in per cent) by setting is: under setting [6], 111%; under setting [7], 113%; under setting [8], 118%; under setting [9], 68.7%; under setting [10], 9.69%; under setting [11], 0.15%. The viability, T/C is, setting by setting: under setting [12], 95.7%; under setting [13], 121%; under setting [14], 115%; under setting [15], 63.1%; under setting [16], 7.2%; under setting [17], 0.13%. Moreover, the viability, T/C was 101% under setting [18]; 112% under setting [19]; 115% under setting [20]; 58.6% under setting [21]; 5.63% under setting [22]; 0.16% under setting [23]. For the same molecule, the viability, T/C is 96.1% under setting [24]; 117% under setting [25]; 109% under setting [26]; 54% under setting [27]; 3.27% under setting [28]; 0.11% under setting [29]. Moreover, the viability, T/C is, setting by setting: under setting [30], 101%; under setting [31], 110%; under setting [32], 95.6%; under setting [33], 52.5%; under setting [34], 3.08%; under setting [35], 0.17%.

Consider `CCN(c1cc(-c2ccc(CN3CCOCC3)cc2)cc(C(=O)NCc2c(C)cc(C)[nH]c2=O)c1C)C1CCOCC1`, for which the viability, T/C runs as follows: (compound 0.00949 µM) 114% and 95.8%; (compound 0.03 µM) 107% and 113%; (compound 0.0949 µM) 117% and 106%; (compound 0.3 µM) 96.4% and 99.3%; (compound 0.949 µM) 81.8% and 84.4%; (compound 3 µM) 63.5% and 72.9%. In addition, the IC50 (curve of compound) is above 3000 nM.

Regarding `COc1cc(Nc2ncc3c(n2)-c2ccc(Cl)cc2C(c2c(F)cccc2OC)=NC3)ccc1C(=O)O` + NC1CCC(NC2CC2c2ccccc2)CC1, the IC50 reads like this: under setting [1], above 1000 nM; under setting [2], above 1000 nM; under setting [3], above 1000 nM; under setting [4], above 1000 nM; under setting [5], above 1000 nM. In addition, the viability, T/C runs as follows: (second compound 0.1 µM, first compound 0.00316 µM) 82.2%; (second compound 0.1 µM, first compound 0.01 µM) 91.4%; (second compound 0.1 µM, first compound 0.0316 µM) 70.1%; (second compound 0.1 µM, first compound 0.1 µM) 54.5%; (second compound 0.1 µM, first compound 0.316 µM) 58.4%; (second compound 0.1 µM, first compound 1 µM) 84.1%. Besides, the viability, T/C (second compound 0.316 µM, first compound 0.00316 µM) is 87.8%; the viability, T/C (second compound 0.316 µM, first compound 0.01 µM) was 72%; the viability, T/C (second compound 0.316 µM, first compound 0.0316 µM) is 71%; the viability, T/C (second compound 0.316 µM, first compound 0.1 µM) is 56.7%; the viability, T/C (second compound 0.316 µM, first compound 0.316 µM) is 52.2%; the viability, T/C (second compound 0.316 µM, first compound 1 µM) was 58.6%. For the same molecule, the viability, T/C was 71.1% (second compound 1 µM, first compound 0.00316 µM); 87.3% (second compound 1 µM, first compound 0.01 µM); 59.8% (second compound 1 µM, first compound 0.0316 µM); 53.8% (second compound 1 µM, first compound 0.1 µM); 67.3% (second compound 1 µM, first compound 0.316 µM); 60.7% (second compound 1 µM, first compound 1 µM). The viability, T/C reads like this: (second compound 3.16 µM, first compound 0.00316 µM) 83.7%; (second compound 3.16 µM, first compound 0.01 µM) 77.6%; (second compound 3.16 µM, first compound 0.0316 µM) 62.2%; (second compound 3.16 µM, first compound 0.1 µM) 57.3%; (second compound 3.16 µM, first compound 0.316 µM) 51.9%; (second compound 3.16 µM, first compound 1 µM) 60.6%. Moreover, the viability, T/C (second compound 10 µM, first compound 0.00316 µM) is 80.8%; the viability, T/C (second compound 10 µM, first compound 0.01 µM) is 84.1%; the viability, T/C (second compound 10 µM, first compound 0.0316 µM) is 58.9%; the viability, T/C (second compound 10 µM, first compound 0.1 µM) was 58.8%; the viability, T/C (second compound 10 µM, first compound 0.316 µM) is 52.4%; the viability, T/C (second compound 10 µM, first compound 1 µM) was 60.8%.

Regarding `NC1CCC(NC2CC2c2ccccc2)CC1` (stereo not drawn), for the setting “compound 0.316 µM”, the viability, T/C was 83.6% and 74.8%. Also, the IC50 (compound alone, run of 02/15/2022) was above 10000 nM.

For the molecule `CC[C@@]1(O)C(=O)OCc2c1cc1n(c2=O)Cc2cc3c(CN(C)C)c(O)ccc3nc2-1`, the viability, T/C reads like this: (compound 0.000316 µM) 107% and 94.3%; (compound 0.001 µM) 107% and 78.8%; (compound 0.00316 µM) 83.1% and 87.1%; (compound 0.01 µM) 73% and 57.5%; (compound 0.0316 µM) 61.3% and 49.8%; (compound 0.1 µM) 49.9% and 42.5%. Where the note is “curve of compound”, the IC50 was > 100 nM and 21.4 nM.

Consider `Nc1ccccc1NC(=O)c1ccc(CNC(=O)OCc2cccnc2)cc1`, for which the viability, T/C by setting is: (compound 0.00949 µM) 95.6% and 102%; (compound 0.03 µM) 102% and 108%; (compound 0.0949 µM) 89.1% and 128%; (compound 0.3 µM) 69.4% and 70.9%; (compound 0.949 µM) 11.8% and 9.62%; (compound 3 µM) 0.21% and 0.26%. Also, the IC50 (curve of compound) is 438 nM and 432 nM.

`O=C(C=Cc1cccc(S(=O)(=O)Nc2ccccc2)c1)NO` + NC1CCC(NC2CC2c2ccccc2)CC1: the IC50 under setting [1] was determined as 262 nM; the IC50 under setting [2] came to 239 nM; the IC50 under setting [3] came out at 241 nM; the IC50 under setting [4] came to 266 nM; the IC50 under setting [5] was determined as 192 nM. Besides, the viability, T/C runs as follows: under setting [6], 109%; under setting [7], 112%; under setting [8], 116%; under setting [9], 41.7%; under setting [10], 3.48%; under setting [11], 0.14%. Further, the viability, T/C by setting is: under setting [12], 131%; under setting [13], 107%; under setting [14], 95.1%; under setting [15], 39.4%; under setting [16], 4.3%; under setting [17], 0.15%. Moreover, the viability, T/C runs as follows: under setting [18], 90.3%; under setting [19], 121%; under setting [20], 95.8%; under setting [21], 39.1%; under setting [22], 4.13%; under setting [23], 0.15%. The viability, T/C under setting [24] is 109%; the viability, T/C under setting [25] is 129%; the viability, T/C under setting [26] is 113%; the viability, T/C under setting [27] is 42.5%; the viability, T/C under setting [28] was 4.22%; the viability, T/C under setting [29] is 0.16%. Also, the viability, T/C by setting is: under setting [30], 107%; under setting [31], 118%; under setting [32], 73%; under setting [33], 35.7%; under setting [34], 3.52%; under setting [35], 0.24%.
